Experimental data reported in patent US20080220031A1, “Dermocosmetic Preparations” (BASF Aktiengesellschaft, priority 2005, published 2008).

Assays:
[1] = Oxidation test squalene test (Raman, azo initiator V65); conditions: 2500 ppm test substance, azo initiator V65, 30 days at 40° C., squalene content by Raman spectrum
Experimental: 3 ml of a 2% strength solution of the azo initiator V65 (from Wako) are introduced together with 2500 ppm of test substance (based on the squalene solution) into 12×100 […] Fiolax test tubes and thoroughly mixed using a laboratory shaker. The samples are then stored open in a through-circulation drying oven for 30 days at 40° C. At intervals of 7 days, the squalene content of the samples is determined by means of the Raman spectrum and chemometric evaluation. The datapoints are documented in an XY graph and the efficiency of the test substance is determined from the slope of the decomposition curves in comparison with a reference sample without test substance. The slope of the reference sample divided by the slope of the test substance sample gives the factor Q_Raman.

[2] = footnotes 2-4: BASF Technical Information / H. Zweifel; cited from earlier work
[3] = Solubility of various HAS compounds in Miglyol 812; format: physicochemical; conditions: introduced in portions into 10 g of Miglyol, stirred at room temperature
Text: Experimental procedure: The respective MS compound was introduced gradually in small portions into 10 g of Miglyol and in each case stirred at room temperature until it had completely dissolved.

Solubility in Miglyol 812 [3]	Compound	Qraman (slope of reference sample divided by slope of test substance sample) [1]	pKa [2]
	CN1C(C)(C)CC(N(C=O)CCCCCCN(C=O)C2CC(C)(C)N(C)C(C)(C)C2)CC1(C)C	2.4	
	CCCCN(c1nc(NCCCN(CCN(CCCNc2nc(N(CCCC)C3CC(C)(C)N(C)C(C)(C)C3)nc(N(CCCC)C3CC(C)(C)N(C)C(C)(C)C3)n2)c2nc(N(CCCC)C3CC(C)(C)N(C)C(C)(C)C3)nc(N(CCCC)C3CC(C)(C)N(C)C(C)(C)C3)n2)c2nc(N(CCCC)C3CC(C)(C)N(C)C(C)(C)C3)nc(N(CCCC)C3CC(C)(C)N(C)C(C)(C)C3)n2)nc(N(CCCC)C2CC(C)(C)N(C)C(C)(C)C2)n1)C1CC(C)(C)N(C)C(C)(C)C1	1.4	
	CC1(C)CC(N2CN3C(=O)N4CN(C5CC(C)(C)NC(C)(C)C5)CN5C(=O)N(C2)C3C45)CC(C)(C)N1	1.3	9.8^2)
	CN1C(C)(C)CC(N2CN3C(=O)N4CN(C5CC(C)(C)N(C)C(C)(C)C5)CN5C(=O)N(C2)C3C45)CC1(C)C	2.2	
	CC(ON1C(C)(C)CC(O)CC1(C)C)c1ccccc1 (stereo not drawn)	1.3	
	COC(=O)C(CO)ON1C(C)(C)CC(OC)CC1(C)C (stereo not drawn)	1.8	
	CCCCCCCCCCCCC1CC(=O)N(C2CC(C)(C)N(C)C(C)(C)C2)C1=O (stereo not drawn)	6.2	
min. 50%	CCCCCCCCCCCCC1CC(=O)N(C2CC(C)(C)NC(C)(C)C2)C1=O (stereo not drawn) [2-Dodecyl-N-(2,2,6,6-tetramethyl-4-piperidinyl)succinimide]		
	O=C1O[C@H]([C@@H](O)CO)C(O)=C1O [Ascorbic acid]	1.2	
	CCCCCCCCON1C(C)(C)CC(OC(=O)CCCCCCCCC(=O)OC2CC(C)(C)N(OCCCCCCCC)C(C)(C)C2)CC1(C)C [Tinuvin 123]	1.8	
4.7%	CC1(C)CC(OC(=O)CCCCCCCCC(=O)OC2CC(C)(C)NC(C)(C)C2)CC(C)(C)N1 [Tinuvin ® 770]		
insoluble	CC1(C)CC(N(C=O)CCCCCCN(C=O)C2CC(C)(C)NC(C)(C)C2)CC(C)(C)N1 [Uvinul ® 4050H]		
	CCCCCCCCCCCCC1CC(=O)N(C2CC(C)(C)NC(C)(C)C2)C1=O (stereo not drawn) [drawing 31]	7.1	
	Tocopherol	1.4	
